Test results: patent US20240041877A1, “DOSAGE REGIME AND METHOD FOR TREATING PULMONARY ARTERIAL HYPERTENSION” (Altavant Sciences GmbH, priority 2019, published 2024)

Test: Part 2 (MAD): plasma pharmacokinetics after BID oral KAR5585 for 14 days (incl. accumulation ratios and dose proportionality)
[1] = KAR5585 200 mg BID fed, Cohort 3, Day 1 PM, mean
[2] = KAR5585 200 mg BID fed, Cohort 3, Day 7 AM, Day 7/Day 1 accumulation ratio, geo. mean
[3] = KAR5585 200 mg BID fed, Cohort 3, Day 7 AM, Day 7/Day 1 accumulation ratio, mean
[4] = KAR5585 200 mg BID fed, Cohort 3, Day 7 AM, geo. mean
[5] = KAR5585 200 mg BID fed, Cohort 3, Day 7 AM, mean
[6] = KAR5585 200 mg BID fed, Cohort 3, Day 7 PM, Day 7/Day 1 accumulation ratio, geo. mean
[7] = KAR5585 200 mg BID fed, Cohort 3, Day 7 PM, Day 7/Day 1 accumulation ratio, mean
[8] = KAR5585 200 mg BID fed, Cohort 3, Day 7 PM, geo. mean
[9] = KAR5585 200 mg BID fed, Cohort 3, Day 7 PM, mean
[10] = KAR5585 200 mg BID fed, Cohort 3, Day 14 AM, Day 14/Day 1 accumulation ratio, geo. mean
[11] = KAR5585 200 mg BID fed, Cohort 3, Day 14 AM, Day 14/Day 1 accumulation ratio, mean
[12] = KAR5585 200 mg BID fed, Cohort 3, Day 14 AM, geo. mean
[13] = KAR5585 200 mg BID fed, Cohort 3, Day 14 AM, mean
[14] = KAR5585 400 mg BID fed, Cohort 4, Day 1 AM, geo. mean
[15] = KAR5585 400 mg BID fed, Cohort 4, Day 1 AM, mean
[16] = KAR5585 400 mg BID fed, Cohort 4, Day 1 PM, geo. mean
[17] = KAR5585 400 mg BID fed, Cohort 4, Day 1 PM, mean
[18] = KAR5585 400 mg BID fed, Cohort 4, Day 7 AM, Day 7/Day 1 accumulation ratio, geo. mean
[19] = KAR5585 400 mg BID fed, Cohort 4, Day 7 AM, Day 7/Day 1 accumulation ratio, mean
[20] = KAR5585 400 mg BID fed, Cohort 4, Day 7 AM, geo. mean
[21] = KAR5585 400 mg BID fed, Cohort 4, Day 7 AM, mean
[22] = KAR5585 400 mg BID fed, Cohort 4, Day 7 PM, Day 7/Day 1 accumulation ratio, geo. mean
[23] = KAR5585 400 mg BID fed, Cohort 4, Day 7 PM, Day 7/Day 1 accumulation ratio, mean
[24] = KAR5585 400 mg BID fed, Cohort 4, Day 7 PM, geo. mean
[25] = KAR5585 400 mg BID fed, Cohort 4, Day 7 PM, mean
[26] = KAR5585 400 mg BID fed, Cohort 4, Day 14 AM, Day 14/Day 1 accumulation ratio, geo. mean
[27] = KAR5585 400 mg BID fed, Cohort 4, Day 14 AM, Day 14/Day 1 accumulation ratio, mean
[28] = KAR5585 400 mg BID fed, Cohort 4, Day 14 AM, geo. mean
[29] = KAR5585 400 mg BID fed, Cohort 4, Day 14 AM, mean
[30] = power model, PK Day 1 (AM), 100 to 400 mg KAR5585 repeat oral doses, fed
[31] = power model, PK Day 7 (AM), 100 to 400 mg KAR5585 repeat oral doses, fed
[32] = power model, PK Day 14 (AM), 100 to 400 mg KAR5585 repeat oral doses, fed

Excerpt: Food effect was to be evaluated in Part 1, Period 2.
Pharmacokinetic data were to be summarized descriptively.

## Nc1nc(O[C@H](c2ccc(Cl)cc2-c2ccccc2)C(F)(F)F)cc(N2CCC3(CC2)CN[C@H](C(=O)O)C3)n1 [KAR5417, (S)-8-(2-amino-6-((R)-1-(5-chloro-[1,1T-biphenyl]-2-yl)-2,2,2-trifluoroeth-oxy)pyrimidin-4-yl)-2,8-diazaspiro[4.5]decane-3-carboxylic acid]
KAR5585 200 mg BID fed, Cohort 3, Day 1 PM, geo. mean
  t1/2: 5.95 h
[1]
  AUC0-12: 2 µg·h/mL
  AUC0-24: 3.7 µg·h/mL
  AUC0-24/D: 9.26 (hr*ng/ml)/mg
  AUC0-∞: 2.72 µg·h/mL
  C12: 112 ng/mL
  Cmax: 0.322 µg/mL
  Cmax/D: 1.61 (ng/ml)/mg
  t1/2: 6.03 h
KAR5585 200 mg BID fed, Cohort 3, Day 1 PM, median
  Tmax: 4.0 h
[2]
  RAUC0-12: 1.33
  RCmax: 0.989
[3]
  RAUC0-12: 1.34
  RCmax: 1.00
[4]
  AUC0-12: 2.15 µg·h/mL
  AUC0-∞: 2.61 µg·h/mL
  C12: 87.2 ng/mL
  Cmax: 0.332 µg/mL
  Cmax/D: 1.66 (ng/ml)/mg
  t1/2: 4.57 h
[5]
  AUC0-12: 2.3 µg·h/mL
  AUC0-∞: 2.8 µg·h/mL
  C12: 93.1 ng/mL
  Cmax: 0.359 µg/mL
  Cmax/D: 1.80 (ng/ml)/mg
  t1/2: 4.61 h
[6]
  RAUC0-12: 0.955
  RCmax: 0.645
[7]
  RAUC0-12: 0.984
  RCmax: 0.711
[8]
  AUC0-12: 1.49 µg·h/mL
  AUC0-24: 3.62 µg·h/mL
  AUC0-24/D: 9.05 (hr*ng/ml)/mg
  AUC0-∞: 2.27 µg·h/mL
  C12: 131 ng/mL
  Cmax: 0.212 µg/mL
  Cmax/D: 1.06 (ng/ml)/mg
  t1/2: 6.48 h
[9]
  AUC0-12: 1.54 µg·h/mL
  AUC0-24: 3.81 µg·h/mL
  AUC0-24/D: 9.52 (hr*ng/ml)/mg
  AUC0-∞: 2.28 µg·h/mL
  C12: 145 ng/mL
  Cmax/D: 1.11 (ng/ml)/mg
  t1/2: 6.64 h
[10]
  RAUC0-12: 1.07
  RCmax: 0.854
[11]
  RAUC0-12: 1.09
  RCmax: 0.901
[12]
  AUC0-12: 1.67 µg·h/mL
  AUC0-24: 2.2 µg·h/mL
  AUC0-∞: 3.25 µg·h/mL
  C12: 59.6 ng/mL
  Cmax: 0.281 µg/mL
  Cmax/D: 1.40 (ng/ml)/mg
  t1/2: 24.1 h
[13]
  AUC0-12: 1.82 µg·h/mL
  AUC0-24: 2.38 µg·h/mL
  AUC0-∞: 3.48 µg·h/mL
  C12: 63.5 ng/mL
  C24: 32.6 ng/mL
  Cmax: 0.319 µg/mL
  Cmax/D: 1.59 (ng/ml)/mg
  t1/2: 25.0 h
[14]
  AUC0-12: 2.92 µg·h/mL
  AUC0-∞: 3.4 µg·h/mL
  C12: 90.2 ng/mL
  Cmax: 0.532 µg/mL
  Cmax/D: 1.33 (ng/ml)/mg
  t1/2: 3.71 h
[15]
  AUC0-12: 3.28 µg·h/mL
  AUC0-∞: 3.78 µg·h/mL
  C12: 99.3 ng/mL
  Cmax: 0.595 µg/mL
  Cmax/D: 1.49 (ng/ml)/mg
  t1/2: 3.80 h
[16]
  AUC0-12: 4.34 µg·h/mL
  AUC0-24: 7.43 µg·h/mL
  AUC0-24/D: 9.28 (hr*ng/ml)/mg
  AUC0-∞: 6.86 µg·h/mL
  C12: 242 ng/mL
  Cmax: 0.67 µg/mL
  Cmax/D: 1.68 (ng/ml)/mg
  t1/2: 5.3 h
[17]
  AUC0-12: 4.59 µg·h/mL
  AUC0-24: 7.87 µg·h/mL
  AUC0-24/D: 9.83 (hr*ng/ml)/mg
  AUC0-∞: 7.09 µg·h/mL
  C12: 252 ng/mL
  Cmax: 0.739 µg/mL
  Cmax/D: 1.85 (ng/ml)/mg
  t1/2: 5.31 h
[18]
  RAUC0-12: 2.15
  RCmax: 1.81
[19]
  RAUC0-12: 2.38
  RCmax: 2.00
[20]
  AUC0-12: 6.25 µg·h/mL
  AUC0-∞: 7.48 µg·h/mL
  C12: 222 ng/mL
  Cmax: 0.96 µg/mL
  Cmax/D: 2.40 (ng/ml)/mg
  t1/2: 3.89 h
[21]
  AUC0-12: 6.6 µg·h/mL
  AUC0-∞: 7.84 µg·h/mL
  C12: 240 ng/mL
  Cmax: 1 µg/mL
  Cmax/D: 2.51 (ng/ml)/mg
  t1/2: 3.94 h
[22]
  RAUC0-12: 1.50
  RCmax: 1.08
[23]
  RAUC0-12: 1.63
  RCmax: 1.18
[24]
  AUC0-12: 4.36 µg·h/mL
  AUC0-24: 10.6 µg·h/mL
  AUC0-24/D: 13.3 (hr*ng/ml)/mg
  AUC0-∞: 6.45 µg·h/mL
  C12: 356 ng/mL
  Cmax: 0.574 µg/mL
  Cmax/D: 1.44 (ng/ml)/mg
  t1/2: 5.08 h
[25]
  AUC0-12: 4.61 µg·h/mL
  AUC0-24: 11.2 µg·h/mL
  AUC0-24/D: 14.0 (hr*ng/ml)/mg
  AUC0-∞: 6.52 µg·h/mL
  C12: 396 ng/mL
  Cmax/D: 1.52 (ng/ml)/mg
  t1/2: 5.10 h
[26]
  RAUC0-12: 1.43
  RCmax: 1.35
[27]
  RAUC0-12: 1.65
  RCmax: 1.54
[28]
  AUC0-12: 4.16 µg·h/mL
  AUC0-24: 5.41 µg·h/mL
  AUC0-24/D: 13.5 (hr*ng/ml)/mg
  AUC0-∞: 8.12 µg·h/mL
  C12: 140 ng/mL
  C24: 73.3 ng/mL
  Cmax: 0.717 µg/mL
  Cmax/D: 1.79 (ng/ml)/mg
  t1/2: 30.4 h
[29]
  AUC0-24: 5.66 µg·h/mL
  AUC0-24/D: 14.1 (hr*ng/ml)/mg
  AUC0-∞: 8.5 µg·h/mL
  C12: 149 ng/mL
  Cmax: 0.749 µg/mL
  Cmax/D: 1.87 (ng/ml)/mg
  t1/2: 30.6 h
[30]
  Dose proportionality analysis, AUC0-12: Intercept estimate: 0.828
  Dose proportionality analysis, AUC0-inf: Intercept estimate: 1.12
  Dose proportionality analysis, Cmax: Intercept estimate: 0.167
[31]
  Dose proportionality analysis, AUC0-12: Intercept estimate: 2.63
  Dose proportionality analysis, Cmax: Intercept estimate: 0.393
[32]
  Dose proportionality analysis, AUC0-12: Intercept estimate: 5.18
  Dose proportionality analysis, Cmax: Intercept estimate: 0.877
